Experimental data from patent US20150219624A1, “METHODS FOR IDENTIFYING ANTI-CANCER COMPOUNDS” (MEMORIAL SLOAN KETTERING CANCER CENTER, priority 2013, published 2015).
Values joined by “and” are separate entries in the source; they are usually repeats but may differ in a detail not shown here. Equal values may be shown once.

Assay: In vivo toxicity studies (body and organ weights, hematology, clinical chemistry, histopathology)
Protocol: Toxicity studies. Eight week-old C57Bl/6NTac female mice were randomly assigned to either control or treatment groups. Each treatment group received one daily dose of test article through i.p. injection over 5 consecutive days. Toxicity was monitored by weight loss and daily clinical observation for the 14 days following test article administration. 24 hours after the last test article administration 4 mice in each group were sacrificed and clinical chemistry, hematology and tissue specific histopathology were done at autopsy. The remaining mice (n=2 per group) were kept under observation for an additional 13 days; at that point all mice were sacrificed and clinical chemistry, hematology and tissue specific histopathology were done at time of autopsy.
D) KOPT-K1 xenograft studies.

[1] = 0.2 mg/kg, female, Day 5, individual animals
[2] = 0.2 mg/kg, female, Day 19, % change of mean vs vehicle
[3] = 0.2 mg/kg, female, Day 19, group mean
[4] = 0.2 mg/kg, female, Day 19, individual animals
[5] = bone marrow cytology, count of 300 total cells, individual animals Treatment #7-#10
[6] = bone marrow cytology, individual animals Treatment #7-#10
[7] = spleen cytology, individual animals Treatment #7-#10
[8] = therapeutic doses (0.2 mg/kg i.p.)

(±)-CR-31-B
NEUT [1]: 1.05 K/uL and 1.69 K/uL and 1.40 K/uL and 1.70 K/uL | NEUT % [1]: 21.94% and 24.51% and 28.20% and 24.44% | Na [1]: 152 mEq/L and 147 mEq/L (2×) and 150 mEq/L | PLT [1]: 872 K/uL and 673 K/uL and 676 K/uL and 682 K/uL | RBC [1]: 9.31 M/uL and 8.95 M/uL and 8.69 M/uL and 8.89 M/uL | RDW % [1]: 15.6% and 16.1% and 15.2% and 16.4% | Right Kidney [1]: 0.119 gm and 0.125 gm (2×) and 0.135 gm and 0.75 % body wt and 0.73 % body wt and 0.77 % body wt and 0.78 % body wt | Spleen [1]: 0.049 gm and 0.070 gm and 0.086 gm and 0.064 gm and 0.31 % body wt and 0.41 % body wt and 0.49 % body wt and 0.40 % body wt | TBIL [1]: 0.2 mg/d L (3×) and 0.1 mg/d L | TP [1]: 5.1 g/dL and 4.8 g/dL (2×) and 4.9 g/dL | WBC [1]: 4.78 K/uL and 6.90 K/uL and 4.98 K/uL and 6.96 K/uL | BASO % % ChVh [2]: 27.3% | BASO (K/uL) % ChVh [2]: −100.0% | Body Weight % ChVh [2]: 3.6% | EOS % % ChVh [2]: 5.5% | EOS (K/uL) % ChVh [2]: −50.0% | HCT % % ChVh [2]: 0.2% | HGB % ChVh [2]: −5.0% | LYM % % ChVh [2]: −0.1% | LYM (K/uL) % ChVh [2]: −58.8% | Left Kidney (% body wt) % ChVh [2]: −9.1% | Left Kidney (gm) % ChVh [2]: −11.8% | Liver (% body wt) % ChVh [2]: 4.1% | Liver (gm) % ChVh [2]: 7.9% | MCH % ChVh [2]: -4.5% | MCHC % ChVh [2]: -5.4% | MCV % ChVh [2]: 0.4% | MONO % % ChVh [2]: −34.0% | MONO (K/uL) % ChVh [2]: −70.0% | MPV % ChVh [2]: 4.3% | NEUT % % ChVh [2]: 3.7% | NEUT (K/uL) % ChVh [2]: −56.3% | PLT % ChVh [2]: 10.5% | RBC % ChVh [2]: −0.2% | RDW % % ChVh [2]: 0.6% | Right Kidney (% body wt) % ChVh [2]: −6.3% | Right Kidney (gm) % ChVh [2]: −3.6% | Spleen (% body wt) % ChVh [2]: 0.0% | Spleen (gm) % ChVh [2]: 3.2% | WBC % ChVh [2]: −58.5% | BASO [3]: 0.00 K/uL | BASO % [3]: 0.14% | Body Weight [3]: 17.981 gm | EOS [3]: 0.02 K/uL | EOS % [3]: 0.58% | HCT % [3]: 44.2% | HGB [3]: 13.2 g/dL | LYM [3]: 2.46 K/uL | LYM % [3]: 84.19% | MCH [3]: 14.7 pg | MCHC [3]: 29.9 g/dL | MCV [3]: 49.0 fL | MONO [3]: 0.03 K/uL | MONO % [3]: 0.93% | MPV [3]: 4.8 fL | NEUT [3]: 0.42 K/uL | NEUT % [3]: 14.16% | PLT [3]: 1196.5 K/uL | RBC [3]: 9.02 M/uL | RDW % [3]: 16.3% | WBC [3]: 2.93 K/uL | 2D. Individual chemistry, column 2 (head not shown; probably ALP) [4]: 144 and 160 | 2D. Individual chemistry, column 3 (head not shown; probably ALT) [4]: 20 and 22 | 2D. Individual chemistry, column 4 (head not shown; probably AST) [4]: 33 and 38 | 2D. Individual chemistry, column 5 (head not shown; probably GGT) [4]: 0 | 2D. Individual chemistry, column 6 (head not shown; probably albumin) [4]: 2.9 | 2D. Individual chemistry, column 7 (head not shown; probably total protein) [4]: 4.7 | 2D. Individual chemistry, column 8 (head not shown; probably globulin) [4]: 1.8 | 2D. Individual chemistry, column 10 (head not shown; probably total bilirubin) [4]: 0.1 | 2D. Individual chemistry, column 11 (head not shown; probably BUN) [4]: 29 and 35 | 2D. Individual chemistry, column 12 (head not shown; probably creatinine) [4]: 0.2 | BASO [4]: 0.00 K/uL | BASO % [4]: 0.14% and 0.13% | Body Weight [4]: 18.769 gm and 17.192 gm | CHOL [4]: 71 mg/dL and 59 mg/dL | Ca [4]: 9.0 mg/dL and 9.4 mg/dL | Cl [4]: 112 mEq/L and 117 mEq/L | EOS [4]: 0.02 K/uL | EOS % [4]: 0.50% and 0.66% | GLUC [4]: 254 mg/dL and 227 mg/dL | HCT % [4]: 45.9% and 42.5% | HGB [4]: 13.4 g/dL and 13.0 g/dL | K [4]: 3.5 mEq/L and 4.0 mEq/L | LYM [4]: 2.80 K/uL and 2.12 K/uL | LYM % [4]: 83.42% and 84.96% | Left Kidney [4]: 0.111 gm and 0.113 gm and 0.73 % body wt and 0.66 % body wt | Liver [4]: 1.111 gm and 0.988 gm and 5.92 % body wt and 5.75 % body wt | MCH [4]: 14.4 pg and 14.9 pg | MCHC [4]: 29.2 g/dL and 30.6 g/dL | MCV [4]: 49.2 fL and 48.8 fL | MONO [4]: 0.03 K/uL and 0.02 K/uL | MONO % [4]: 0.91% and 0.95% | MPV [4]: 4.6 fL and 4.9 fL | NEUT [4]: 0.51 K/uL and 0.33 K/uL | NEUT % [4]: 15.03% and 13.29% | Na [4]: 147 mEq/L and 149 mEq/L | PLT [4]: 990 K/uL and 1403 K/uL | RBC [4]: 9.33 M/uL and 8.70 M/uL | RDW % [4]: 16.4% and 16.2% | Right Kidney [4]: 0.137 gm and 0.127 gm and 0.73 % body wt and 0.74 % body wt | Spleen [4]: 0.081 gm and 0.048 gm and 0.43 % body wt and 0.28 % body wt | WBC [4]: 3.36 K/uL and 2.50 K/uL | Lymph [5]: 64 and 60 and 61 and 44 | Mast [5]: 0 | Mat ery [5]: 56 and 62 and 45 and 38 | Mat myel [5]: 122 (2×) and 88 (2×) and 120 (2×) and 121 (2×) | Plasma [5]: 0 | Pro myel [5]: 34 and 64 and 52 and 72 | Prol ery [5]: 24 and 26 and 22 and 25 | Total Ery [5]: 80 and 88 and 67 and 63 | Total myel [5]: 156 and 152 and 172 and 193 | % Lymph [6]: 21.3% and 20.0% and 20.3% and 14.7% | % Mast [6]: 0.0% | % Mat ery [6]: 18.7% and 20.7% and 15.0% and 12.7% | % Plasma [6]: 0.0% | % Pro ery [6]: 8.0% and 8.7% and 7.3% and 8.3% | % Pro myel [6]: 11.3% and 21.3% and 17.3% and 24.0% | % T ery [6]: 26.7% and 29.3% and 22.3% and 21.0% | % T myel [6]: 52.0% and 50.7% and 57.3% and 64.3% | % mat myel [6]: 40.7% and 29.3% and 40.0% and 40.3% | M:E [6]: 2.0 and 1.7 and 2.6 and 3.1 | intestinal histology (during and after treatment): No changes | % Erythroid [7]: 0% (3×) and 1% | % Lymph [7]: 94% (2×) and 90% (4×) and 86% (2×) | % Macrophage [7]: 2% (3×) and 0% | % Mesenchymal [7]: 0% (3×) and 2% | % Myeloid [7]: 4% and 7% and 9% and 10% | % Plasma [7]: 0% (3×) and 1% | other blood counts, bone marrow cytology, serum chemistry [8]: no other changes | white cell count [8]: reversible drop in white cell count with a nadir on day 19
